US20250304551A1 (SHANGHAI APEIRON THERAPEUTICS COMPANY LIMITED, priority 2022, published 2025)

Key:
[1] = target: T1, Human KIF18A (amino acid sequence 1-417) (Homo sapiens, UniProt Q8NI77); experiment: Enzyme activity detection experiment (ADP-Glo, KIF18A with tubulin and ATP); format: biochemical; conditions: tubulin 60 μg/mL, ATP 25 μM, KIF18A protein 2.5 nM, 120 minutes at ambient temperature, ADP-Glo chemiluminescence
T1 construct: purchased Viva Biotech (Shanghai) Ltd
Procedure, shortened: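 KIF18A (2.5 nM) was incubated with tubulin (60 μg/mL as added), ATP (25 μM) and serially diluted compound for 120 min at ambient temperature. ADP formed was detected by ADP-Glo: reagent for 30 min, then detection reagent for 30 min in the dark, with chemiluminescence read-out.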

[2] = test system: OVCAR3 cells; experiment: Cell proliferation activity test, OVCAR3 (CyQUANT Direct); format: cell-based; conditions: Homo sapiens, OVCAR-3, 72 h, 3 days incubation, CyQUANT fluorescence detection, read-out: OVCAR-3 Cell Viability_IC50_nM
Procedure, shortened: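 OVCAR3 cells seeded overnight, then exposed to compounds at 0-10 μM final (0.20% DMSO) for 3 days at 37° C. Cell number read by CyQUANT Direct fluorescence after 60 min at 37° C.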

[3] = test system: HT29 cells; experiment: CyQuant cell proliferation activity test, HT29; format: cell-based; conditions: Homo sapiens, HT-29, 72 h, HT29 2000 cells per well, 3 days incubation, initial concentration 3000 nM, IC50 by XLFIT, read-out: HT-29 Cell Viability_IC50_nM
Procedure, shortened: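 HT29 cells (2000/well, RPMI-1640 with 10% FBS) were plated overnight, then exposed to compound for 3 days at 37 °C, 5% CO2. Dosing was 9 concentrations, 3-fold dilutions from 3000 nM, in 0.20% DMSO. Proliferation was read with CyQuant reagent after 1 h, and IC50 derived from the curves.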

T1 sequence (Q8NI77 1-417): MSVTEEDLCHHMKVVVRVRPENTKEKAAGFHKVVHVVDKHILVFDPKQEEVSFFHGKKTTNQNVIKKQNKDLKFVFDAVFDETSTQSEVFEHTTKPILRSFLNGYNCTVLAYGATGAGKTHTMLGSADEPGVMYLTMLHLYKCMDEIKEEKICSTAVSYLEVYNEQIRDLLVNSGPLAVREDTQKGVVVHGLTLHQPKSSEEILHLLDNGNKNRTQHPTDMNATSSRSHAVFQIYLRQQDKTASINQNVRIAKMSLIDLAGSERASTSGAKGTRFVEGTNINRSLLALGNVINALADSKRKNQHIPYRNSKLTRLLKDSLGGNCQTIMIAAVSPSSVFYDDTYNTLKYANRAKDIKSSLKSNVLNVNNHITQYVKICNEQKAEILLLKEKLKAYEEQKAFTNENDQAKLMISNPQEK
T1 sequence (Q2XVP4 whole entry partner): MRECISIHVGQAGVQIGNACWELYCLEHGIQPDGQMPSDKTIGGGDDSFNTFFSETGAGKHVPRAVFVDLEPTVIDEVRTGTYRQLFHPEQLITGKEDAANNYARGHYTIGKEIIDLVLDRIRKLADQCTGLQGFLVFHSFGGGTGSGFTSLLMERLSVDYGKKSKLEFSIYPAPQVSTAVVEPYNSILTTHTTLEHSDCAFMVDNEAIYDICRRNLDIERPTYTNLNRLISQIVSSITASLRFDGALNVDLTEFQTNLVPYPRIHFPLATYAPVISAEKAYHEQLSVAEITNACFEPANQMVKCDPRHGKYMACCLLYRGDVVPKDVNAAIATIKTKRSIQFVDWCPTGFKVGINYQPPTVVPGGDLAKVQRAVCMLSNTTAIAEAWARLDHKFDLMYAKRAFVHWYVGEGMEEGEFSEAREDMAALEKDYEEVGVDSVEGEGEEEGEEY
T1 sequence (P02554 whole entry partner): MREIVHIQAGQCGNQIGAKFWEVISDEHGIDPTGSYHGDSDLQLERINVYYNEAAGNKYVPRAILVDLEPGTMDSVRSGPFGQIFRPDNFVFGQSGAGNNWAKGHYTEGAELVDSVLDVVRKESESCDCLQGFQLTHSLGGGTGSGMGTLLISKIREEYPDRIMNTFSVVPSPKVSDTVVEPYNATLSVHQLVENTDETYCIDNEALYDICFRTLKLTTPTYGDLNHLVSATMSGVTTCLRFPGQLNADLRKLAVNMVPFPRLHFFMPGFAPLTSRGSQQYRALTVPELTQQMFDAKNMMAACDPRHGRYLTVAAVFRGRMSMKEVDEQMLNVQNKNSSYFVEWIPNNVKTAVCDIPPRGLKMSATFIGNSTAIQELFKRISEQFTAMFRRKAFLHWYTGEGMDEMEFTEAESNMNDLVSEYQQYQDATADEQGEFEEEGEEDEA

Structure (SMILES) | IC50 [1] [nM] | IC50 [2] [nM] | IC50 [3] [nM]
COc1cc(-c2cn(-c3ccc(NS(=O)(=O)CCO)cc3N3CCC4(CC3)CC4)nn2)cc(N2CCC(F)(F)CC2)n1 [Example 62, N-(4-(4-(2-(4,4-difluoropiperidin-1-yl)-6-methoxypyridin-4-yl)-1H-1,2,3-triazol-1-yl)-3-(6-azaspiro[2.5]octan-6-yl)phenyl)-2-hydroxyethane-1-sulfonamide] | 272 | 59 | 60
Cc1cc(-c2nnc(-c3ccc(NS(=O)(=O)CCO)cc3N3CCC4(CC3)CC4)o2)nc(NC(C)(C)CO)n1 [Example 16, 2-hydroxy-N-(4-(5-(2-((1-hydroxy-2-methylpropan-2-yl)amino)-6-methylpyrimidin-4-yl)-1,3,4-oxadiazol-2-yl)-3-(6-azaspiro[2.5]octan-6-yl)phenyl)ethane-1-sulfon amide] | 243 | 717 | 1520
Cc1cc(-c2cn(-c3ccc(NS(=O)(=O)CCO)cc3N3CCC4(CC3)CC4)cn2)nc(N2CCC(F)(F)CC2)n1 [Example 10, N-(4-(4-(2-(4,4-difluoropiperidin-1-yl)-6-methylpyrimidin-4-yl)-1H-imidazol-1-yl)-3-(6-azaspiro[2.5]octan-6-yl)phenyl)-2-hydroxyethane-1-sulfonamide] | 251 | 46 | 56
Cc1cc(-c2noc(-c3ccc(NS(=O)(=O)CCO)cc3N3CCC4(CC3)CC4)n2)nc(N2CCC(F)(F)CC2)n1 [Example 7] | 102 | 1180 | > 3000
Nc1cc(-c2cn(-c3ccc(NS(=O)(=O)CCO)cc3N3CCC4(CC3)CC4)nn2)nc(N2CCC(F)(F)CC2)n1 [Example 55, N-(4-{4-[6-amino-2-(4,4-difluoropiperidin-1-yl)pyrimidin-4-yl]-1H-1,2,3-triazol-1-yl}-3-{6-azaspiro[2.5]octan-6-yl}phenyl)-2-hydroxyethane-1-sulfonamide] | 40 | 3 | 3
O=S(=O)(CCO)Nc1ccc(-c2nnc(-c3cc4cccnc4c(N4CCC(F)(F)CC4)n3)o2)c(N2CCC3(CC2)CC3)c1 [Example 29, N-(4-(5-(8-(4,4-difluoropiperidin-1-yl)-1,7-naphthyridin-6-yl)-1,3,4-oxadiazol-2-yl)-3-(6-azaspiro[2.5]octan-6-yl)phenyl)-2-hydroxyethanesulfonamide] | 48 | 37 | 45
Cc1cc(-c2cn(-c3ccc(NS(=O)(=O)CCO)cc3N3CCC4(CC3)CC4)nn2)nc(N2CCOCC2C)n1 (stereo not drawn) [Example 45] | 88 | 22 | 13
Cc1cc(-c2nnc(-c3ccc(NS(=O)(=O)CCO)cc3N3CCC4(CC3)CC4)[nH]2)nc(N2CCC(F)(F)CC2)n1 [Example 4, N-(4-(5-(2-(4,4-difluoropiperidin-1-yl)-6-methylpyrimidin-4-yl)-4H-1,2,4-triazol-3-yl)-3-(6-azaspiro[2.5]octan-6-yl)phenyl)-2-hydroxyethane-1-sulfonamide] | 38 | 62 | 77
Nc1ncc(-c2cn(-c3ccc(NS(=O)(=O)CCO)cc3N3CCC4(CC3)CC4)nn2)nc1N1CCC(F)(F)CC1 [Example 79, N-(4-{4-[5-amino-6-(4,4-difluoropiperidin-1-yl)pyrazin-2-yl]-1H-1,2,3-triazol-1-yl}-3-{6-azaspiro[2.5]octan-6-yl}phenyl)-2-hydroxyethane-1-sulfonamide] | 24 | 11 | 7
Cc1cc(-c2cn(-c3ccc(NS(=O)(=O)CCO)cc3N3CCC4(CC3)CC4)nn2)nc(N2[C@H](C)COC[C@@H]2C)n1 [Example 46, N-(4-(4-(2-((3S,5R)-3,5-dimethylmorpholin)-6-methylpyrimidin-4-yl)-1H-1,2,3-triazol-1-yl)-3-(6-azaspiro[2.5]octan-6-yl)phenyl)2-hydroxyethanesulfonamide] | 151 | 14 | 39
Cc1cc(-c2cn(-c3ccc(NS(=O)(=O)C4(CO)CC4)cc3N3CCC4(CC3)CC4)nn2)nc(N2CCC(F)(F)CC2)n1 [Example 85, N-(3-{6-azaspiro[2.5]octan-6-yl}-4-{4-[2-(4,4-difluoropiperidin-1-yl)-6-methylpyrimidin-4-yl]-1H-1,2,3-triazol-1-yl}phenyl)-1-(hydroxymethyl)cyclopropane-1-sulfonamide] | 188 | 25 | 34
Cc1cc(-c2nnn(-c3ccc(NS(=O)(=O)CCO)cc3N3CCC4(CC3)CC4)c2C)nc(N2CCC(F)(F)CC2)n1 [Example 69, N-(3-{6-azaspiro[2.5]octan-6-yl}-4-{4-[2-(4,4-difluoropiperidin-1-yl)-6-methylpyrimidin-4-yl]-5-methyl-1H-1,2,3-triazol-1-yl}phenyl)-2-hydroxyethane-1-sulfonamide] | > 3000 | 1500 | > 3000
Cc1cc(-c2cn(-c3ccc(NS(=O)(=O)CCO)cc3N3CCC4(CC3)CC4)nn2)c(F)c(N2CCC(F)(F)CC2)n1 [Example 65, N-(4-(4-(2-(4,4-difluoropiperidin-1-yl)-3-fluoro-6-methylpyridin-4-yl)-1H-1,2,3-triazol-1-yl)-3-(6-azaspiro[2.5]octan-6-yl)phenyl)-2-hydroxyethane-1-sulfonamide] | 383 | 116 | 127
O=S(=O)(CCO)Nc1ccc(-c2cn(-c3cc(N4CCC(F)(F)CC4)c4ncccc4c3)nn2)c(N2CCC3(CC2)CC3)c1 [Example 94, N-(4-(1-(8-(4,4-difluoropiperidin-1-yl)quinolin-6-yl)-1H-1,2,3-triazol-4-yl)-3-(6-azaspiro[2.5]octan-6-yl)phenyl)-2-hydroxyethane-1-sulfonamide] | 227 | 92 | 57
Nc1ccc2cc(-c3cn(-c4ccc(NS(=O)(=O)CCO)cc4N4CCC5(CC4)CC5)nn3)c(F)c(N3CCC(F)(F)CC3)c2n1 [Example 80, N-(4-{4-[2-amino-8-(4,4-difluoropiperidin-1-yl)-7-fluoroquinolin-6-yl]-1H-1,2,3-triazol-1-yl}-3-{6-azaspiro[2.5]octan-6-yl}phenyl)-2-hydroxyethane-1-sulfonamide] | 475 | 21 | 26
